Laboratory results published in ChEMBL document CHEMBL4002629, “Design, synthesis and biological evaluation of novel 3-substituted 4-anilino-coumarin derivatives as antitumor agents” (Bioorg Med Chem Lett, 2017).

Key:
PANC-1 = assay: Antiproliferative activity against human PANC1 cells after 48 hrs by MTT assay; type: functional, cell-based; conditions: PANC-1, 48 h
MCF7 = assay: Antiproliferative activity against human MCF7 cells after 48 hrs by MTT assay; type: functional, cell-based; conditions: MCF7, 48 h
HepG2 = assay: Antiproliferative activity against human HepG2 cells after 48 hrs by MTT assay; type: functional, cell-based; conditions: HepG2, 48 h
HCT-116 = assay: Antiproliferative activity against human HCT116 cells after 48 hrs by MTT assay; type: functional, cell-based; conditions: HCT-116, 48 h
[1] = Selectivity index, ratio of IC50 for HUVEC to IC50 for human PANC1 cells
[2] = Selectivity index, ratio of IC50 for HUVEC to IC50 for human MCF7 cells
HUVEC = assay: Antiproliferative activity against HUVEC after 48 hrs by MTT assay; type: cell-based; conditions: Homo sapiens
[3] = Selectivity index, ratio of IC50 for HUVEC to IC50 for human HepG2 cells
[4] = Selectivity index, ratio of IC50 for HUVEC to IC50 for human HCT116 cells

| Structure (SMILES) | IC50 (PANC-1) [µM] | IC50 (MCF7) [µM] | IC50 (HepG2) [µM] | IC50 (HCT-116) [µM] | Ratio IC50 [1] | Ratio IC50 [2] | IC50 (HUVEC) [µM] | Ratio IC50 [3] | Ratio IC50 [4] |
| --- | --- | --- | --- | --- | --- | --- | --- | --- | --- |
| COc1ccc(Nc2c(-c3ccc(OC)cc3)c(=O)oc3cc(OC)ccc23)cc1 | 41 | 39.2 | 39.6 | 35.1 | – | – | – | – | – |
| COc1ccc(-c2c(Nc3ccc(C)cc3)c3ccc(OC)cc3oc2=O)cc1 | 76.5 | 66.9 | 74.4 | 82.4 | – | – | – | – | – |
| COc1ccc(-c2c(Nc3ccc(NC(C)=O)cc3)c3ccc(O)cc3oc2=O)cc1 | – | > 100 | > 100 | – | – | – | – | – | – |
| COc1ccc(-c2c(Nc3ccc(F)cc3)c3ccc(OC)cc3oc2=O)cc1 | – | > 100 | > 100 | – | – | – | – | – | – |
| COc1ccc(-c2c(Nc3ccc4c(c3)OCO4)c3ccccc3oc2=O)cc1 | – | > 100 | > 100 | – | – | – | – | – | – |
| COc1ccc(-c2c(Nc3ccc(NC(C)=O)cc3)c3ccccc3oc2=O)cc1 | – | > 100 | > 100 | – | – | – | – | – | – |
| COc1ccc(-c2c(Nc3ccc(F)cc3)c3ccc(O)cc3oc2=O)cc1 | 75 | 71.5 | 65.6 | 66.1 | – | – | – | – | – |
| COc1ccc(-c2c(Nc3cc(OC)c(OC)c(OC)c3)c3ccc(O)cc3oc2=O)cc1 | 63.9 | 56 | 49.6 | 64.2 | – | – | – | – | – |
| COc1ccc(-c2c(Nc3cccc(C(F)(F)F)c3)c3ccc(O)cc3oc2=O)cc1 | 67.2 | 49.1 | 53.6 | 55.9 | – | – | – | – | – |
| COc1ccc(-c2c(Nc3cccc(C(F)(F)F)c3)c3ccc(OC)cc3oc2=O)cc1 | 39.5 | 36.2 | 57.2 | 41.2 | – | – | – | – | – |
| COc1ccc(Nc2c(C(=O)C(F)(F)F)c(=O)oc3cc(OC)ccc23)cc1 | 47.5 | 55.7 | 38.4 | 61.2 | – | – | – | – | – |
| COc1ccc(-c2c(Nc3ccc(C)cc3)c3ccc(O)cc3oc2=O)cc1 | – | 85.5 | 88.3 | – | – | – | – | – | – |

Now those with a lower IC50 (MCF7), led by results:

| IC50 (PANC-1) [µM] | IC50 (MCF7) [µM] | IC50 (HepG2) [µM] | IC50 (HCT-116) [µM] | Structure (SMILES) | Ratio IC50 [1] | Ratio IC50 [2] | IC50 (HUVEC) [µM] | Ratio IC50 [3] | Ratio IC50 [4] |
| --- | --- | --- | --- | --- | --- | --- | --- | --- | --- |
| 23.8 | 15 | 12.3 | 19.5 | COc1ccc2oc(=O)c(C(=O)C(F)(F)F)c(Nc3cc(OC)c(OC)c(OC)c3)c2c1 | – | – | – | – | – |
| 31.3 | 34.4 | 22.5 | 26.5 | COc1ccc(-c2c(Nc3ccc(C)c(O)c3)c3ccc(OC)cc3oc2=O)cc1 | – | – | – | – | – |
| 43.6 | 32.5 | 36.5 | 46.1 | CCOc1ccc(Nc2c(-c3ccc(OC)cc3)c(=O)oc3cc(O)ccc23)cc1 | – | – | – | – | – |
| 37.5 | 34.6 | 35.2 | 36.6 | COc1ccc(Nc2c(-c3ccc(OC)cc3)c(=O)oc3ccccc23)cc1 | – | – | – | – | – |
| 36.1 | 24.3 | 31.2 | 33 | CCOc1ccc(Nc2c(-c3ccc(OC)cc3)c(=O)oc3cc(OC)ccc23)cc1 | – | – | – | – | – |
| 32.9 | 30.7 | 31.3 | 29.5 | CCOc1ccc(Nc2c(-c3ccc(OC)cc3)c(=O)oc3ccccc23)cc1 | – | – | – | – | – |
| 5.62 | 20.1 | 6.71 | 4.62 | COc1ccc2oc(=O)c(C(=O)C(F)(F)F)c(Nc3ccc(C)c(O)c3)c2c1 | 5.23 | 1.46 | 29.4 | 4.39 | 6.37 |
